Assay results: a melting point compilation (Tetko et al.; mined from patent text by program, amines drawn as free bases though some values may be those of a salt)
Residues, ends and D or L forms follow the SMILES beside them. *: point of attachment. Tos = Cc1ccc(S(=O)(=O)*)cc1

Point of comparison: `CC(=O)N(C)C1(c2ccccc2)CCN(Cc2ccccc2)CC1`, melting point 104 °C. Against it:
- COc1ccc2cc(C(C)(O)C(=O)O)ccc2c1 (stereo unspecified) — higher, 150 to 152 °C
- CC1Cc2cc3c(cc2C(c2ccc(N)cc2)=NN1C(=O)Nc1ccccc1)OCO3 (stereo unspecified) — higher, 118 to 120 °C
- O=C(OCCc1ccccn1)Oc1ccc([N+](=O)[O-])cc1 — higher, 125 to 127 °C
- CCOC(=O)C(=O)N(CC)C(=O)OCCOc1ccc(Oc2ccccc2)cc1 — lower, 56 to 58 °C
- CC(=O)NC[C@H]1CN(c2ccc(-c3noc(C(N)=O)n3)c(F)c2)C(=O)O1 — higher, 218 to 220 °C
- CCCCCCCCCCC1SCCCN1C(=S)Nc1cccc(Cl)c1 (stereo unspecified) — lower, 63 to 65 °C
- Nc1cc(O)nc(SCc2cccc(F)c2F)n1 — higher, 218 to 221 °C
- CNC(=O)c1cccc(NC(=O)Cc2ccc3c(c2)OCO3)c1 — higher, 174 to 175 °C
- O=C(O)C(=O)CC(=O)c1cn(Cc2ccccc2F)c2ccccc2c1=O — higher, 172 to 174 °C
- COc1ccc(C(=O)Nc2ccccc2)cc1NC(=S)Nc1ccccc1 — higher, 174 to 176 °C
- CCCC/C=C\CCCCCCCCCC1=CC(=O)C=C(OC)C1=O — lower, 39.5 to 41.5 °C
- CCC(=O)OCC=C(C)CCC=C(C)CCC=C(C)CCC=C(C)CCC=C(C)CCC=C(C)CCC=C(C)CCC=C(C)CCC=C(C)C — lower, 33 to 35 °C
- COC(=O)[C@H]1N[C@@H](c2cccnc2)[C@@H]([N+](=O)[O-])[C@@H]1[C@@H](OCc1ccccc1)C(C)C — lower, 70 to 71 °C
- Cc1cc(-c2nncc3c(-c4ccco4)c(OCc4ncnn4C)nn23)no1 — higher, 226 to 228 °C
- CCCC1C=C2NC(=O)CC[C@]2(C)[C@H]2CC[C@]3(C)[C@@H]([C@H](C)CCCC(C)C)CC[C@H]3[C@H]12 (stereo partly specified) — lower, 91 to 94 °C
- CC(=O)CCCCCCCCCCCCC(C)=O — lower, 80 °C
- CC[C@H](CO)Nc1nc(Nc2ccccn2)c2ncn(C(C)C)c2n1 — lower, 30 to 35 °C
- CC(C)c1nc2c(N)nc(-c3ccncc3)nc2[nH]1 — higher, 269 to 272 °C
- CCCCCCCCCCCCCCCCCCOC(=O)CCc1cc(C(C)(C)C)c(OP2Nc3ccccc3O2)c(C(C)(C)C)c1 (stereo unspecified) — lower, 58 to 65 °C
- COc1ccc(CCc2nnc(-c3ccc4[nH]nnc4c3)o2)cc1C(F)(F)F — higher, 154 to 155 °C
- CCP(=O)(CC)Cc1ccccc1O — higher, 127 °C
- Cc1cc(C)c(-n2ccc3c(OC(C)C)nn(C)c(=O)c32)c(C)c1 — higher, 108 to 111 °C
- O=Cc1coc(C(O)c2ccc(Br)cc2)c1 (stereo unspecified) — lower, 83 to 84 °C
- CCOc1nn(-c2ccccn2)cc1CCCOc1cc(CCC(=O)O)n(-c2ccccc2)n1 — higher, 156 to 157 °C
- Cn1nc(C(F)(F)F)cc1N — lower, 100 to 101 °C
- O=Cc1ccc(F)c(F)c1 — lower, 95 to 96 °C
- CCOC(=O)c1nc2cc(C)c(C)cc2nc1Cl — higher, 109 to 111 °C
- CC(C)(C)c1cc(CCc2ccccc2NC(=O)NCC2(c3ccc4c(c3)OCO4)CCCC2)cc(C(C)(C)C)c1O — higher, 188 to 189 °C
- CCCCCCCCCCOc1ccc(-c2ccc(C(C)=O)cc2)cc1 — not separable, 102 to 104 °C
- Nc1nc(OC2CCCC2)c2ncn(C3C=CC(CO)C3)c2n1 (stereo unspecified) — higher, 188 to 190 °C
- COC(=O)c1ccc(C(O)COc2ccc3c(c2)C(C)(C)CCC3(C)C)cc1 (stereo unspecified) — lower, 92 to 96 °C
- COC(=S)c1nc(-c2ccccc2)c(N)nc1N — higher, 210 °C
- Cc1ccc(S(=O)(=O)ON=C2CC(c3ccccc3)c3ccccc32)cc1 (stereo unspecified) — higher, 123 to 127 °C
- CC(C)(C)c1cc(CCc2ccccc2NC(=O)N2CCCCCC2)cc(C(C)(C)C)c1O — higher, 136 to 138 °C
- COC(=O)c1ccc(NC(C)=O)c2c1OCCC2 — higher, 175 °C
- CCNCCC1CCc2cc(OCc3ccc(-c4ccccc4)cc3)ccc2C1 (stereo unspecified) — lower, 83 to 85 °C
- Nc1nc(N)c2cc(S(=O)(=O)c3ccc(Cl)c(Cl)c3)ccc2n1 — higher, 286 to 289 °C
- CCOC(=O)C1=C(C)NC(C)=C(C(=O)OCC)C1c1ccccc1/C=C/C(=O)OCC(C)C — higher, 172 to 174 °C
- OC1(c2ccccc2)C(c2ccccc2)SC2=NCCCCN21 (stereo unspecified) — lower, 100 to 103 °C
- COc1ccc(N2C(=O)C(C)(C)N(c3ccc(Cc4ccccc4)cc3)C2=S)cc1 — higher, 162 °C
- COc1ccc(C(=O)N(C(=O)c2ccc(OC)cc2)c2nc3ccc(N4CCN(Cc5ccccc5)CC4)cc3c(NCc3ccccc3)c2C#N)cc1 — higher, 157 °C
- Cc1cc2c(=O)c(C(=O)O)cn(-c3cc(N)c(F)cc3F)c2c([N+](=O)[O-])c1F — higher, 236 to 242 °C
- Cc1ccc(S(=O)(=O)NCC(=O)N[C@@H](Cc2ccccc2)C(=O)O)cc1 (Tos-Gly-Phe-OH) — higher, 157 to 161 °C
- NS(=O)(=O)c1ccc(-c2cnn(C3CC=CCC3)c(=O)c2-c2ccc(F)cc2)cc1 (stereo unspecified) — higher, 206 to 208 °C
- CC(=O)c1sccc1CBr — lower, 62 to 64 °C
- CC(C)Oc1cc(-n2c(=O)[nH]c(CF)c(F)c2=O)c(F)cc1Cl — higher, 152 to 154 °C
- CC(C)(C)P1(=O)c2ccccc2CN1c1ccccc1 (stereo unspecified) — higher, 171 to 172 °C
- CN(C(=O)c1ccc2nonc2c1)C1CCCCC1=O (stereo unspecified) — higher, 144 to 145 °C
- CCc1cc2c(=O)n3cc(C#N)ccc3nc2s1 — higher, 223 to 224 °C
- Cc1cc(O)c(CC(=O)OC(C)C)cc1O — higher, 123 °C
- Nc1ccc2c(c1)C(NC(=O)C(F)(F)F)CC2 (stereo unspecified) — higher, 133 to 134 °C
- CCCC/C(=C\C=C\C(=O)Oc1ccc([N+](=O)[O-])cc1)c1ccc(OC)cc1 — lower, 78 to 80 °C
- O=C(Cl)COC(=O)c1ccccc1 — lower, 25 to 26 °C
- CC(=O)c1cc(CBr)cc(CBr)c1 — lower, 87 to 88 °C
- Nc1cc(OCC(O)CO)ccc1[N+](=O)[O-] (stereo unspecified) — higher, 139 °C
- CCCCCCCCCCC(Oc1ccc(C2=CCCCCCC2)cc1)C(=O)O (stereo unspecified) — lower, 45 to 48 °C
- N#CC(=Cc1cc(O)c(O)c(Br)c1)C(=O)Nc1cccc(Cl)c1 — higher, 266 to 270 °C
- Cc1ccc(CCC(C)NCC(O)c2cc3ccccc3o2)cc1 (stereo unspecified) — lower, 83 to 84 °C
- O=c1c(-c2ccc(F)cc2)coc2cc(O)c(O)cc12 — higher, 296 °C
- Cc1ccc(C)c2c1CCC2=NNC(N)=NC(c1ccccc1)c1ccccc1 — higher, 271 to 273 °C
- O=C(c1c(O)c2ccccc2c2nc3ccccc3nc12)N1CCOCC1 — higher, 223 to 225 °C
- c1ccc(Cc2cccnn2)cc1 — lower, 61 to 64 °C
- CCCC(=O)NC[C@@H]1C[C@H]1c1cc(OC)c(Br)cc1Br (relative stereo) — higher, 114 to 115 °C
- CCOCCOc1ccc(C(=O)Oc2ccc(C#N)c(F)c2)cc1 — lower, 62.4 to 63.2 °C
- C#CC1(c2ccc(OC)c(OC3CCCC3)c2)CCC2(CC1)OCCO2 — lower, 53.5 to 55 °C
- c1ccc2c(Cn3ccnc3)noc2c1 — lower, 52 to 55 °C
- CC1(C)CCC(C)(C)c2cc(COc3ccc(C(=O)O)cc3-c3ccccc3)ccc21 — higher, 195 to 198 °C
- CC1(C)CN=C(c2cc3cc(F)cc(NS(=O)(=O)c4cccs4)c3[nH]2)S1 — higher, 175 to 176 °C
- CO/C(=C1/C(C)=C(CC(=O)O)c2cc(F)ccc21)c1ccccc1 — higher, 184 to 186 °C
- CCn1c(Cn2ccnc2-c2cc(F)ccc2F)nc2ncccc21 — higher, 214 to 216 °C
- CNC(=O)NCc1cncn1C1c2ccccc2CCC1(C)C (stereo unspecified) — higher, 120 °C
- Cc1cccc(C)c1C(=Nc1ccc(F)cc1)NC(=NC1CCCCC1)N1CCCCC1C (stereo unspecified) — higher, 167 to 168 °C
- CCOC(=O)C=Cc1ccc(OCCCCOCc2ccccc2)nc1NC(=O)C(C)(C)C — lower, 75 to 76 °C
- COCc1nc2c(N)nc3ccccc3c2s1 — higher, 183 to 185 °C
- OCCNC(c1ccccc1)c1ccccc1 — lower, 69 to 70 °C
- COc1cc(C)c(CC(=O)O)cc1C(C)C — higher, 107 to 109 °C
- CN1CCN(C(=NNc2ccccc2Cl)c2ccccc2F)CC1 — higher, 109 to 111 °C
- COC(=O)c1cccc(-c2cn(C)cc(-n3cccn3)c2=O)c1 — higher, 144 °C
- CCCN(CCC)c1c(CC)nn2c(-c3ccc(N(C)C)cc3Cl)cccc12 — higher, 133 to 134 °C
- NC(=O)Nc1ccc(-c2nnc(CSCCOc3ccccc3)o2)cc1 — higher, > 220 °C
- CCOC(=O)OCC(F)(F)Cn1nc(C)c(-c2ccc3c(c2)NC(=O)CO3)c1-c1ccc(F)cc1 — higher, 142 °C
- O=C1Cc2cc(OCc3ccc4ccccc4n3)ccc2N1c1c(Cl)cccc1Cl — higher, 147 to 148 °C
- COc1cc(CCC(=O)Nc2nc3ccccc3s2)ccc1C(=O)/C=C/C(=O)O — higher, 260 to 261 °C
- CCc1nnc(-c2ccc(N(C)C)c(C)c2)n1-c1ccc(OC)cc1 — higher, 131 °C
- CCCCCCCCOc1ccc(-c2ccc(O)c(F)c2F)cc1 — higher, 145 °C
- CCCCCCCCCCCCCCOc1ccc(CN(C(C)=O)c2ccc(CBr)cc2)cc1 — lower, 46 to 49 °C
- c1ccc(N(Cc2ccc(OCOc3ccc(CN(c4ccccc4)c4ccccc4)cc3)cc2)c2ccccc2)cc1 — lower, 99 to 100 °C
- CCC(NC(C)=O)c1ccc(CN2CCN(c3ccc(F)cc3F)CC2)cc1 (stereo unspecified) — higher, 137 to 138 °C
- COc1ccc(/C=C(\C#N)Cc2ccccc2)cc1OC1CCCC1 — higher, 111 to 112 °C
- CCOc1ccc(C(=O)CCC(=O)Nc2sc(-c3ccccc3)nc2-c2ccccc2)cc1OCC — higher, 139 to 140 °C
- CC(C)OCc1cnc2c(NC(=O)c3c(Cl)cccc3Cl)cccc2c1Cl — higher, 117 to 118 °C
- Nc1c(NC2CCc3ccccc32)[nH]c(=O)[nH]c1=O (stereo unspecified) — higher, > 150 °C
- CCOC(=O)c1cn(-c2cc(N)c(F)cn2)c2c(Cl)c(F)c(F)cc2c1=O — higher, 140 to 148 °C
- CCC(OC(C)=O)c1nc2c(C(F)(F)F)cccc2c(O)c1C(=O)Nc1nccs1 (stereo unspecified) — higher, 245 °C
- Oc1ccc2cc(-c3csc(-c4ccccc4)n3)ccc2c1Br — higher, 176 to 183 °C
- CC(C#N)S[C@H](C)[C@](O)(Cn1cncn1)c1ccc(F)cc1F (stereo partly specified) — lower, 66 to 68 °C
- C/C(=C(\C#N)C(N)=S)N1CCCN(c2cccc([N+](=O)[O-])c2)CC1 — higher, 157 to 158 °C
- CCOC(=O)Cn1c2cccccc-2c(C(N)=O)c1=O — higher, 215 to 220 °C
- COC(=O)c1c[nH]c(=O)c2ccccc12 — higher, 258 to 260 °C
- COc1cc2c(cc1N1CCN(CC3Cc4ccccc4C3)CC1)OCCO2 — higher, 176 to 178 °C
